# Measured values taken from PubChem BioAssay AID2060605 (Molecular Pharmacology Branch, DTP, NCI, 2025).
# System: 947758-054-R-J2-PDC spheroid growth, percent test/control
# Assay: Anticancer human tumor 947758-054-R-J2-PDC patient-derived colon adenocarcinoma cell line growth inhibition [CLK]
# Settings: spheroids with HUVEC and MSC; for IC50: curve of first compound; for viability, T/C: stronger effect = lower value
# From the text: A high-throughput screen of multi-cell type tumor spheroids was designed to identify active combinations of […] and targeted small molecules. Complex spheroids include a stromal component modeled by human endothelial cells (HUVEC) and fibroblasts modeled by human mesenchymal stem cells (MSCs). The concentration ranges selected for each drug and investigational agent were based upon clinically achievable concentrations if the clinical Cmax of the agent was known.
# Compounds. The drugs and investigational agents: cirtuvivint (SM08502; NSC835563), CC-671 (NSC850746), vemurafenib (NSC761431), tapotoclax (NSC804041), sotorasib (NSC818433), adagrasib (NSC831453), MRTX-1133 (NSC836407), BAY2416964 (NSC825713), copanlisib (NSC816437), inavolisib (NSC800729), abemaciclib (NSC768073), osimertinib (NSC779217), entinostat (NSC756642), eltanexor (KPT-8602, NSC794443), venetoclax (NSC766270), ceralasertib (NSC777638), bortezomib (NSC756655), olaparib (NSC753686), talazoparib (NSC767125), alisertib (NSC759677), peposertib (NSC802822), gemcitabine (NSC613327), 5-fluorouracil (NSC19893), SN-38 (NSC673596), oxaliplatin (NSC266046), paclitaxel (NSC125973), and doxorubicin (NSC123127), were obtained from the National Cancer Institute (NCI) Developmental Therapeutics Program Chemical Repository. The FDA-approved anticancer drug set is available from the Developmental Therapeutics Program at https://dtp.cancer.gov/organization/dscb/obtaining/available plates.htm. […] The stock solutions were prepared in dimethyl sulfoxide (DMSO, Sigma-Aldrich, St. Louis, MO, cat. D2650), except for the platinum complexes which were prepared in saline (Quality Biological, Gaithersburg, MD, cat. 114-055-101), at 800-fold the tested concentration and stored at -70 degrees C prior to their use. All drugs and investigational agents were tested over a range starting from a high concentration at or near the clinical Cmax and decreasing in half-log increments. If the clinical Cmax for an agent had not been determined, the highest concentration tested was 10 microM.
# Cell Culture. All cells were maintained in an incubator at 37 degrees C and 5% CO2 with 95% humidity. The PDC lines were cultured according to standard operating procedures established by the NCI PDMR. Briefly, all PDCs were thawed and cultured in Matrigel-coated flasks prepared with a working solution of 1X Ham's F-12 nutrient mix, without supplementation (Invitrogen, Waltham, MA, cat. 11765054), 100 U/mL penicillin-streptomycin (Invitrogen, cat. 15140122), and 2.5% Matrigel (Corning Inc., Corning, NY, cat. 354248) for the first three passages. The 947758-054-R-J2-PDC line was cultured in 6B/Colon 1A media, which includes advanced DMEM/F-12 (Thermo Fisher Scientific, cat. 12634028), 10 mM HEPES (Thermo Fisher Scientific, cat. 15630080), 1X GlutaMAX supplement (Thermo Fisher Scientific, cat. 35050061), 0.1 mg/mL primocin (InvivoGen, cat. ant-pm-2), 10% defined fetal bovine serum, heat inactivated (HyClone Laboratories Inc., cat. SH30070.03HI), 1.25 mM N-Acetyl-L-cysteine (Sigma-Aldrich, cat. A9165), 10 mM nicotinamide (Sigma-Aldrich, cat. N0636), 1X B-27 supplement (Thermo Fisher Scientific, cat. 17504044), 1X N-2 supplement (Thermo Fisher Scientific, cat. 17502048), and 10 microM Y-27632 dihydrochloride (Tocris Bioscience, cat. 1254). The 876862-298-R-J1-PDC was cultured in 6E media, which includes all 6B/Colon 1A media components plus 50% L-WRN conditioned media (ATCC, cat. CRL-3276), 50 ng/mL recombinant human EGF recombinant protein (hEGF; Thermo Fisher Scientific, cat. PHG0311), 10 ng/mL recombinant human fibroblast growth factor 10 (hGFG-10; PeproTech, cat. 100-26), 1 ng/mL recombinant human fibroblast growth factor 2 (hFGF-2; PeproTech, cat. 100-18B), and 1 µM prostaglandin E2 (PGE2; Tocris, cat. 2296). The 227483-062-R1-J1-PDC line was cultured in Panc media, containing all 6E components except hFGF-2, with the addition of 500 nM SB-431542 (Selleckchem, cat. S1067) and 10 nM gastrin (Tocris, cat. 3006). […]
# [1] = second compound 0.0316 µM, first compound 0.0316 µM
# [2] = second compound 0.0316 µM, first compound 0.1 µM
# [3] = second compound 0.0316 µM, first compound 0.316 µM
# [4] = second compound 0.0316 µM, first compound 1 µM
# [5] = second compound 0.0316 µM, first compound 3.16 µM
# [6] = second compound 0.0316 µM, first compound 10 µM
# [7] = second compound 0.1 µM, first compound 0.0316 µM
# [8] = second compound 0.1 µM, first compound 0.1 µM
# [9] = second compound 0.1 µM, first compound 0.316 µM
# [10] = second compound 0.1 µM, first compound 1 µM
# [11] = second compound 0.1 µM, first compound 3.16 µM
# [12] = second compound 0.1 µM, first compound 10 µM
# [13] = second compound 0.316 µM, first compound 0.0316 µM
# [14] = second compound 0.316 µM, first compound 0.1 µM
# [15] = second compound 0.316 µM, first compound 0.316 µM
# [16] = second compound 0.316 µM, first compound 1 µM
# [17] = second compound 0.316 µM, first compound 3.16 µM
# [18] = second compound 0.316 µM, first compound 10 µM
# [19] = second compound 1 µM, first compound 0.0316 µM
# [20] = second compound 1 µM, first compound 0.1 µM
# [21] = second compound 1 µM, first compound 0.316 µM
# [22] = second compound 1 µM, first compound 1 µM
# [23] = second compound 1 µM, first compound 3.16 µM
# [24] = second compound 1 µM, first compound 10 µM
# [25] = second compound 3.16 µM, first compound 0.0316 µM
# [26] = second compound 3.16 µM, first compound 0.1 µM
# [27] = second compound 3.16 µM, first compound 0.316 µM
# [28] = second compound 3.16 µM, first compound 1 µM
# [29] = second compound 3.16 µM, first compound 3.16 µM
# [30] = second compound 3.16 µM, first compound 10 µM
# [31] = second compound 10 µM, first compound 0.0316 µM
# [32] = second compound 10 µM, first compound 0.1 µM
# [33] = second compound 10 µM, first compound 0.316 µM
# [34] = second compound 10 µM, first compound 1 µM
# [35] = second compound 10 µM, first compound 3.16 µM
# [36] = second compound 10 µM, first compound 10 µM
# 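Also: spheroids exposed to compounds for one week before readout.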
# 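For viability, T/C in this document: 100% = DMSO vehicle control wells.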
smiles,measurement,setting,value
C=CC(=O)N1CCN(c2nc(=O)n(-c3c(C)ccnc3C(C)C)c3nc(-c4c(O)cccc4F)c(F)cc23)C(C)C1 (stereo unspecified) + CN1CCN(c2cc(C(=O)Nc3cc4cc(-c5cnn(C)c5)ccc4cn3)ccn2)CC1,IC50,second compound 0.0316 µM,> 10000 nM
same,IC50,second compound 0.1 µM,> 10000 nM
same,IC50,second compound 0.316 µM,< 31.6 nM
same,IC50,second compound 1 µM,< 31.6 nM
same,IC50,second compound 3.16 µM,< 31.6 nM
same,IC50,second compound 10 µM,< 31.6 nM
same,"viability, T/C",[1],118%
same,"viability, T/C",[2],143%
same,"viability, T/C",[3],122%
same,"viability, T/C",[4],98.4%
same,"viability, T/C",[5],113%
same,"viability, T/C",[6],99.8%
same,"viability, T/C",[7],172%
same,"viability, T/C",[8],199%
same,"viability, T/C",[9],161%
same,"viability, T/C",[10],234%
same,"viability, T/C",[11],167%
same,"viability, T/C",[12],77.3%
same,"viability, T/C",[13],4.67%
same,"viability, T/C",[14],7.3%
same,"viability, T/C",[15],6.68%
same,"viability, T/C",[16],5.29%
same,"viability, T/C",[17],3.14%
same,"viability, T/C",[18],1.35%
same,"viability, T/C",[19],0.18%
same,"viability, T/C",[20],3.35%
same,"viability, T/C",[21],0.19%
same,"viability, T/C",[22],0.19%
same,"viability, T/C",[23],0.18%
same,"viability, T/C",[24],0.21%
same,"viability, T/C",[25],2.2%
same,"viability, T/C",[26],0.99%
same,"viability, T/C",[27],0.31%
same,"viability, T/C",[28],0.31%
same,"viability, T/C",[29],0.72%
same,"viability, T/C",[30],0.51%
same,"viability, T/C",[31],0.46%
same,"viability, T/C",[32],0.29%
same,"viability, T/C",[33],1.59%
same,"viability, T/C",[34],0.39%
same,"viability, T/C",[35],0.98%
same,"viability, T/C",[36],0.57%
CCCS(=O)(=O)Nc1ccc(F)c(C(=O)c2c[nH]c3ncc(-c4ccc(Cl)cc4)cc23)c1F + CN1CCN(c2cc(C(=O)Nc3cc4cc(-c5cnn(C)c5)ccc4cn3)ccn2)CC1,IC50,second compound 0.0316 µM,> 10000 nM
same,IC50,second compound 0.1 µM,910 nM
same,IC50,second compound 0.316 µM,< 31.6 nM
same,IC50,second compound 1 µM,< 31.6 nM
same,IC50,second compound 3.16 µM,< 31.6 nM
same,IC50,second compound 10 µM,< 31.6 nM
same,"viability, T/C",[1],99.5%
same,"viability, T/C",[2],99.4%
same,"viability, T/C",[3],79.7%
same,"viability, T/C",[4],74.3%
same,"viability, T/C",[5],79.6%
same,"viability, T/C",[6],63.8%
same,"viability, T/C",[7],128%
same,"viability, T/C",[8],176%
same,"viability, T/C",[9],101%
same,"viability, T/C",[10],50.9%
same,"viability, T/C",[11],50.8%
same,"viability, T/C",[12],34.5%
same,"viability, T/C",[13],3.8%
same,"viability, T/C",[14],4.14%
same,"viability, T/C",[15],4.9%
same,"viability, T/C",[16],4.06%
same,"viability, T/C",[17],4.73%
same,"viability, T/C",[18],3.59%
same,"viability, T/C",[19],0.85%
same,"viability, T/C",[20],1%
same,"viability, T/C",[21],0.17%
same,"viability, T/C",[22],0.15%
same,"viability, T/C",[23],1.2%
same,"viability, T/C",[24],0.11%
same,"viability, T/C",[25],0.94%
same,"viability, T/C",[26],1.18%
same,"viability, T/C",[27],1.32%
same,"viability, T/C",[28],0.16%
same,"viability, T/C",[29],0.84%
same,"viability, T/C",[30],1.58%
same,"viability, T/C",[31],1.3%
same,"viability, T/C",[32],1.75%
same,"viability, T/C",[33],0.41%
same,"viability, T/C",[34],0.42%
same,"viability, T/C",[35],1.25%
same,"viability, T/C",[36],0.41%
COC1C=CCC(C)C(C)S(=O)(=O)NC(=O)c2ccc3c(c2)N(CC2CCC21)CC1(CCCc2cc(Cl)ccc21)CO3 (stereo unspecified) + CN1CCN(c2cc(C(=O)Nc3cc4cc(-c5cnn(C)c5)ccc4cn3)ccn2)CC1,IC50,second compound 0.0316 µM,8020 nM
same,IC50,second compound 0.1 µM,8680 nM
same,IC50,second compound 0.316 µM,< 31.6 nM
same,IC50,second compound 1 µM,< 31.6 nM
same,IC50,second compound 3.16 µM,< 31.6 nM
same,IC50,second compound 10 µM,< 31.6 nM
same,"viability, T/C",[1],111%
same,"viability, T/C",[2],106%
same,"viability, T/C",[3],111%
same,"viability, T/C",[4],97%
same,"viability, T/C",[5],101%
same,"viability, T/C",[6],37.8%
same,"viability, T/C",[7],137%
same,"viability, T/C",[8],163%
same,"viability, T/C",[9],179%
same,"viability, T/C",[10],174%
same,"viability, T/C",[11],151%
same,"viability, T/C",[12],35.2%
same,"viability, T/C",[13],4.59%
same,"viability, T/C",[14],2.89%
same,"viability, T/C",[15],2.74%
same,"viability, T/C",[16],3.21%
same,"viability, T/C",[17],3.47%
same,"viability, T/C",[18],6.05%
same,"viability, T/C",[19],1.87%
same,"viability, T/C",[20],4.11%
same,"viability, T/C",[21],0.16%
same,"viability, T/C",[22],1.58%
same,"viability, T/C",[23],1.7%
same,"viability, T/C",[24],0.3%
same,"viability, T/C",[25],0.35%
same,"viability, T/C",[26],0.72%
same,"viability, T/C",[27],0.26%
same,"viability, T/C",[28],1.14%
same,"viability, T/C",[29],0.26%
same,"viability, T/C",[30],0.15%
same,"viability, T/C",[31],1.19%
same,"viability, T/C",[32],3.23%
same,"viability, T/C",[33],2.27%
same,"viability, T/C",[34],1.77%
same,"viability, T/C",[35],0.61%
same,"viability, T/C",[36],1.23%
